We go through one molecule from patent US7867512B2, “Cross-linked polymersomes and related encapsulating membranes” (The Trustees of the University of Pennsylvania, priority 1999, dated 2011).

Series [1] can be described thus: Micropipette aspiration of vesicle membranes (bending and area expansion moduli, rupture). In kind it is physicochemical. As to conditions: vesicles formed by electroformation. The method, then:
The tool that has been used to measure many of the material properties of bilayer vesicles is “micropipette aspiration” as applied in FIG. 2. In micropipette aspiration, the rheology and material properties of micron-sized objects are measured using glass pipettes. Small, micron diameter pipettes are used to pick up, deform and manipulate micron-sized objects, such as giant lipid vesicles. The aspiration pressure is controlled by manometers, in which the hydrostatic pressure in a reservoir connected to the micropipette is varied in relation to a fixed reference. Pressure may be varied with a resolution of microns of H2O (or 10^−6 atm).
A deformable object is aspirated using a pressure driving force (or suction pressure), ΔP, and the object is drawn within the pipette to a projection length LP. […] The bending modulus is measured by exerting small tensions on the membrane, to smooth out thermally-driven surface undulations. […]
Analogous to a lipid bilayer, at low but increasing aspiration pressures, the thermally undulating polymersome membrane was progressively smoothed, increasing the projected area logarithmically with tension, τ, (FIG. 3A). From the slope of this increase (in tension units of mN/m) versus the fractional change, α, in vesicle area the bending modulus, Kb, was calculated (see, e.g., Evans et al., Phys. Rev. Lett. 64:2094 (1990); Helfrich et al., Nuovo Cimento D3:137 (1984)). […]

The nature of series [2]: Lipid probe incorporation and diffusivity by laser-photobleaching. In kind it is physicochemical. An excerpt:
In the same way, mixtures can be made of the copolymer amphiphiles with other synthetic or non-synthetic amphiphiles, such as, lipids or proteins. […] FIGS. 6A and 6B show the uniformity of fluorescence around an aspirated contour of membrane with 3 mol % mixed in with polymer before vesicle formation.

Regarding `CCCCCCCC/C=C\CCCCCCCC(=O)O[C@H](COC(=O)CCCCCCCCCCCCCCCCC)COP(=O)([O-])OCC[N+](C)(C)C` [SOPC, 1-stearoyl-2-oleoyl phosphatidylcholine], in series [1], the “Ka, elastic modulus for area expansion” value is on record as approximately 180 mN/m. In addition, the lipid probe diffusivity result in series [2] is “approximately 3×10^−8 cm^2/s”.
